Data: patent publication US20240246942A1, “KINASE INHIBITORS FOR THE TREATMENT OF NEURODEGENERATIVE DISEASES” (priority 2020, published 2024)

Assays:
Assay in all cases: biochemical
[1] = target: T1, panel of 374 wild-type kinases (Homo sapiens, UniProt Q16832); details: read-out: % Enzyme Activity (relative to DMSO controls), DDR2
T1 construct: purchased Reaction Biology Corporation
T1 sequence (Q16832 22-855): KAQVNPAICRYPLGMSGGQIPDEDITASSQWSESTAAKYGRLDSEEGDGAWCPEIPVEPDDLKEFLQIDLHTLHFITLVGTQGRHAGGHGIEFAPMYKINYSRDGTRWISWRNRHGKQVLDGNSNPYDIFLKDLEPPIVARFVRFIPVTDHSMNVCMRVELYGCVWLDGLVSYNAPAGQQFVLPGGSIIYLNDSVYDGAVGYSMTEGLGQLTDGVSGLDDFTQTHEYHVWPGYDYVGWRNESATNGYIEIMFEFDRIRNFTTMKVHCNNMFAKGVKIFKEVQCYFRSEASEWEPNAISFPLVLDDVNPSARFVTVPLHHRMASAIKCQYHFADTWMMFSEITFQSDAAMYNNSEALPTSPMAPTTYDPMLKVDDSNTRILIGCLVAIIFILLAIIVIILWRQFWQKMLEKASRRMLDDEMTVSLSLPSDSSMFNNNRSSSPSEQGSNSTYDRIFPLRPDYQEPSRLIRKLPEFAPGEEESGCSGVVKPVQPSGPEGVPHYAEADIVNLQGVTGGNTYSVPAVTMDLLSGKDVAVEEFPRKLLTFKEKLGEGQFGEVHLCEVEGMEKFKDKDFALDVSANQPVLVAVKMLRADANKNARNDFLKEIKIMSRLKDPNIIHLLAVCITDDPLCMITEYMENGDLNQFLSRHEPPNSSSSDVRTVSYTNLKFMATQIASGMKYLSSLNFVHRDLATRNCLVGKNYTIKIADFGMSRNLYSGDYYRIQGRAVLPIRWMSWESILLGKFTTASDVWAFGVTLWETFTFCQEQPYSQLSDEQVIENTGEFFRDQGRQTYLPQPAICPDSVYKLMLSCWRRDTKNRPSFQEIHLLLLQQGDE

[2] = target: T2, panel of 374 wild-type kinases (Homo sapiens, UniProt O15530); details: read-out: % Enzyme Activity (relative to DMSO controls), kinase PDK1/PDPK1
T2 construct: purchased Reaction Biology Corporation
T2 sequence (O15530 1-556): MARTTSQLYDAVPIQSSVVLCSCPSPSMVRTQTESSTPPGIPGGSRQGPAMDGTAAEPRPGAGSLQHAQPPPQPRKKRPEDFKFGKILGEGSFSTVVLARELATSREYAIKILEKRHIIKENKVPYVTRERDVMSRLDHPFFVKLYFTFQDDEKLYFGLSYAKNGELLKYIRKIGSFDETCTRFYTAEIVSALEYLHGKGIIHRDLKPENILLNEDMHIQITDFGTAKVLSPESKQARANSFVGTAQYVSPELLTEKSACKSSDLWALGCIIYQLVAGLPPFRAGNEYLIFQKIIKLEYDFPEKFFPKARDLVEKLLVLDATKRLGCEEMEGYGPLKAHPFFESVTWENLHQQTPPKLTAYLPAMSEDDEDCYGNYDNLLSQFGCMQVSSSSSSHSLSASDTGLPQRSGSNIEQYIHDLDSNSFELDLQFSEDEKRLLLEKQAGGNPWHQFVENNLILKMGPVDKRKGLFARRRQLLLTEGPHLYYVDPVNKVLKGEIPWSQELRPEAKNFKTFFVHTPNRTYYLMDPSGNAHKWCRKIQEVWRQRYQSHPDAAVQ

[3] = target: T3, panel of 374 wild-type kinases (Homo sapiens, UniProt P20794); details: read-out: % Enzyme Activity (relative to DMSO controls), MAK
T3 construct: purchased Reaction Biology Corporation
T3 sequence (P20794 1-623): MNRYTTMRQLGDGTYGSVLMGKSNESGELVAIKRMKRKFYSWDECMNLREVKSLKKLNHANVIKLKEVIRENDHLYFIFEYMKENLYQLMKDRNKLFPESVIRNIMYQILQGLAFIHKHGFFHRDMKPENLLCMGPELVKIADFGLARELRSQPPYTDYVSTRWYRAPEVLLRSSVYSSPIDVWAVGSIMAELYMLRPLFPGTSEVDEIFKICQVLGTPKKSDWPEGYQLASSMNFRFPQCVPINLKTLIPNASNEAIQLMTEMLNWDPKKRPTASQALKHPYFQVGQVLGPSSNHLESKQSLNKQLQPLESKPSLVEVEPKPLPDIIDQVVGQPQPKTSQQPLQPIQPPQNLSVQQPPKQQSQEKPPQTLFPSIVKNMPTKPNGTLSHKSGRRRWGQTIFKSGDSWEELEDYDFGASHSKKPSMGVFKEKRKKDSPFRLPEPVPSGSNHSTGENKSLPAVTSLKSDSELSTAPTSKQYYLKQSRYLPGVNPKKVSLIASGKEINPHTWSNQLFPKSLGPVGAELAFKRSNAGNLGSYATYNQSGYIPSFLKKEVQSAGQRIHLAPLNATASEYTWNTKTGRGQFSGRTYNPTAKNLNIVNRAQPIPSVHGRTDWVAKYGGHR

O=C(Nc1cnn(-c2csc(C(=O)NC3COC3)c2)c1)Nc1ccccc1Cl [Compound 17, 4-(4-(3-(2-chlorophenyl)ureido)-1H-pyrazol-1-yl)-N-(oxetan-3-yl)thiophene-2-carboxamide]
remaining activity at 5 µM [1]: 99.8%
remaining activity at 5 µM [2]: 101%
remaining activity at 5 µM [3]: 98.8%

O=C(Nc1cnn(-c2csc(C(=O)NC3COC3)c2)c1)Nc1c(F)cccc1Cl [Compound 25, 4-(4-(3-(2-chloro-6-fluorophenyl)ureido)-1H-pyrazol-1-yl)-N-(oxetan-3-yl)thiophene-2-carboxamide]
remaining activity at 5 µM [1]: 96.6%
remaining activity at 5 µM [2]: 99.6%
remaining activity at 5 µM [3]: 97.6%

Cc1sc(C(=O)NC2COC2)cc1-n1cc(NC(=O)Nc2c(F)cccc2Cl)cn1 [Compound 27, 4-(4-(3-(2-chloro-6-fluorophenyl)ureido)-1H-pyrazol-1-yl)-5-methyl-N-(oxetan-3-yl)thiophene-2-carboxamide]
remaining activity at 10 µM ([1]; 10 uM): 111%
remaining activity at 10 µM ([2]; 10 uM): 99.2%
remaining activity at 10 µM ([3]; 10 uM): 120%
